Drawing on patent US20060258617A1, “DRUG DELIVERY TO THE BACK OF THE EYE” (Allergan, Inc., priority 2004, published 2006), this text covers osmolality for one substance.

The data set in a line: Osmolality of cyclodextrins as a function of concentration in pure water. It counts as physicochemical. Conditions: ambient room temperature, various concentrations (FIG. 5). The protocol:
The osmolality of four cyclodextrins was determined as a function of concentration in pure water by the following procedure. Various amounts of cyclodextrins were dissolved in water at ambient room temperature.

As to “sulfobutylether-β-cyclodextrin [NaSBECD]”, the osmolality entry was “significantly higher osmolality than the other β-cyclodextrins tested”.
